Reference: patent US20020161007A1, “Non-steroidal modulators of estrogen receptors” (priority 2001, published 2002)
Like-named read-outs stand apart in the source and are kept apart here.

Tests used:
[1] = tested on: human breast tumor MCF-7 cell line; assay: MTT antiproliferative assay on human MCF-7 cell line; type: cell-based; conditions: for IC50: MTT inhibition of proliferation, mean of triplicate determinations; for % Cell viability: 72 h, MTT, MCF-7
Source text: EXAMPLE 14—Determination of the antiproliferative effects on human MCF-7 cell lines.
MTT is a yellow tetrazolium salt which is taken up only by metabolically active cells and subsequently cleaved by mitochondrial dehydrogenases to yield a purple crystalline formazan dye. On solubilisation this purple color may be read spectrophotometrically at 570 nm. The absorbance measured at this wavelength is directly proportional to the amount of viable cells present.
Procedure : The human breast tumor MCF-7 cell line was cultured in Eagles minimum essential medium in a 5% CO2 atmosphere with 10% fetal calf serum. The medium was supplemented with 1% non-essential amino acids. The cells were trypsinized and seeded at a density of 1.5×10^4 into a 96-well plate and incubated at 37° C., 5% CO2 atmosphere for 24 h. […] Control wells contained the equivalent volume of the vehicle ethanol (1% v/v). The culture medium was then removed and the cells washed with 100 μl PBS and 50 μl MTT added, to reach a final concentration of 1 mg/ml MTT added. The cells were incubated for 2 h in darkness at […]. At this point solubilisation was begun through the addition of 200 μl DMSO and the cells maintained at room temperature in darkness for 20 min to ensure thorough color diffusion before reading the absorbance. The absorbance value of control cells (no added compound) was set to 100% cell viability. Graphs of absorbance versus cell density per well were prepared to assess cell viability.

[2] = tested on: human MCF-7 breast cancer cells; assay: LDH release cytotoxicity assay on human MCF-7 cells; type: cell-based; conditions: 72 h
Source text: EXAMPLE 15—Determination of the cytotoxic effects on human MCF-7 cell lines.
Lactate dehydrogenase (LDH) is a cytosolic enzyme released upon cell lysis (death). Through the use of a commercial LDH assay kit, released LDH converts a substrate tetrazolium salt into a soluble red formazan product. The absorbance of this dye can be measured directly at 490 nm, the color formed is proportional to the number of lysed cells, and as such the extent of cytotoxic activity for the compound added may be assessed.
Procedure : As with the cell proliferation assay, human MCF-7 breast cancer cells were plated at a density of 1.5×10^4 per well in a 96-well plate, then incubated at 37° C., 5% CO2 atmosphere for 24 h. The cells were treated with the compound of choice at varying concentrations (1nM-100 μM), then incubated for a further 72 h. Following incubation 50 μl aliquots of medium were removed to a fresh 96-well plate. A 50 μl per well LDH substrate mixture was added and the plate left in darkness at room temperature for 30 minutes. Stop solution (50 μl) was added to all wells before reading the absorbance at 490 nm. A control of 100% lysis was determined for a set of untreated cells which were lysed through the addition of 20 μl lysis solution to the media 45 min prior to harvesting.

[3] = Homo sapiens, MCF7, read-out: IC50 Range
[4] = Homo sapiens, MCF7, read-out: IC50

IC50 ([1]; read-out: IC50 Range) | IC50 [1, 4] | Compound | other results
65 to 70 µM |  | 1,2-Diphenyl-2-[(4-pipyridinylethoxy)benzyl]but-1-ene [Compound 19] | 
 |  | CCC(Cc1ccccc1)=C(c1ccccc1)c1ccc(OCCN(CC)CC)cc1 [Compound 2, 2-Benzyl-1-phenyl-1-[4-(diethylaminoethoxy)phenyl]but-1-ene] | IC50 [1, 3]: 10 to 15 µM
1 to 5 µM |  | CCC(Cc1ccccc1)=C(c1ccccc1)c1ccc(OCCN2CCCC2)cc1 [Compound 3, 2-Benzyl-1-phenyl-1-[4-(pyrrolidinylethoxy)phenyl]but-1-ene] | 
1 to 5 µM |  | CCC(Cc1ccccc1)=C(c1ccccc1)c1ccc(OCCN2CCCCC2)cc1 [Compound 4, 2-Benzyl-1-phenyl-1-[4-(pipyridinylethoxy)phenyl]but-1-ene] | % Cell viability ([1]; 1 nM): 103.8%; % Cell viability ([1]; 10 nM): 100.3%; % Cell viability ([1]; 100 nM): 91.14%; % Cell viability ([1]; 1 μM): 85.13%; % Cell viability ([1]; 10 μM): 29.11%; % Cell viability ([1]; 50 μM): 1.58%; % Cell viability ([1]; 100 μM): 1.27%; % Cytotoxicity ([2]; 1 nM): 3.67%; % Cytotoxicity ([2]; 10 μM): 34.76%; % Cytotoxicity ([2]; 50 μM): 49.44%; % Cytotoxicity ([2]; 100 μM): 49.14%
40 to 50 µM |  | CCC(Cc1ccccc1)=C(c1ccccc1)c1ccc(OCCN2CCOCC2)cc1 [Compound 5, 2-Benzyl-1-phenyl-1-[4-(morpholinylethoxy)phenyl]but-1-ene] | 
15 to 20 µM |  | CCC(=C(Cc1ccccc1)c1ccc(OCCN(CC)CC)cc1)c1ccccc1 [Compound 7, 1-Benzyl-2-phenyl-[1-(4-diethylaminoethoxy)phenyl]-but-1-ene] | 
 |  | CC/C(=C(\Cc1ccccc1)c1ccc(OCCN2CCCC2)cc1)c1ccccc1 [Compound 8, 1-Benzyl-2-phenyl-[1-(4-pyrrolidinylethoxy)phenyl]-but-1-ene] | IC50 [1, 3]: 10 to 15 µM
 |  | CC/C(=C(\Cc1ccccc1)c1ccc(OCCN2CCCCC2)cc1)c1ccccc1 [Compound 9, 1-Benzyl-2-phenyl-[1-(4-pipyridinylethoxy)phenyl]-but-1-ene] | IC50 [1, 3]: 70 to 80 µM
 |  | CC/C(=C(\Cc1ccccc1)c1ccc(OCCN2CCOCC2)cc1)c1ccccc1 [Compound 10, 1-Benzyl-2-phenyl[1-(5-morpholinylethoxy)phenyl]but-1-ene] | IC50 [1, 3]: 1 to 5 µM
 |  | CC/C(=C(\Cc1ccccc1)c1ccccc1)c1ccc(OCCN(C)C)cc1 [Compound 11, 1-Benzyl-1-phenyl-2-[(4-dimethylaminoethoxy)phenyl]but-1-ene] | IC50 [1, 3]: 115 to 120 µM
20 to 25 µM |  | CCC(=C(Cc1ccccc1)c1ccccc1)c1ccc(OCCN(CC)CC)cc1 [Compound 12, 1-Benzyl-1-phenyl-2-[(4-diethylaminoethoxy)phenyl]but-1-ene] | 
20 to 25 µM |  | CCC(=C(Cc1ccccc1)c1ccccc1)c1ccc(OCCN2CCCC2)cc1 [Compound 13, 1-Benzyl-1-phenyl-2-[(4-pyrrolidinylethoxy)phenyl]but-1-ene] | 
50 to 55 µM |  | CCC(=C(Cc1ccccc1)c1ccccc1)c1ccc(OCCN2CCOCC2)cc1 [Compound 15, 1-Benzyl-1-phenyl-2-[(4-morpholinylethoxy)phenyl]but-1-ene] | 
 |  | CC/C(=C(/Cc1ccc(OCCN(C)C)cc1)c1ccccc1)c1ccccc1 [Compound 16] | IC50 [1, 3]: 25 to 30 µM
55 to 60 µM |  | CCC(=C(Cc1ccccc1OCCN(CC)CC)c1ccccc1)c1ccccc1 [Compound 17, 1,2-Diphenyl-2-[2-(diethylaminoethoxy)benzyl]but-1-ene] | 
140 to 145 µM |  | CCC(=C(Cc1ccc(OCCN2CCCC2)cc1)c1ccccc1)c1ccccc1 [Compound 18] | 
1 to 10 µM |  | CCC(Cc1ccccc1)=C(c1ccc(OCCN2CCCC2)cc1)c1ccc(OC(=O)C(C)(C)C)cc1 [Compound 21] | 
10 to 50 µM |  | CCC(Cc1ccccc1)=C(c1ccc(OCCN(C)C)cc1)c1ccc(OC(=O)C(C)(C)C)cc1 [Compound 22] | 
0.1 to 1 µM |  | CCC(Cc1ccccc1)=C(c1ccc(OCCN2CCOCC2)cc1)c1ccc(OC(=O)C(C)(C)C)cc1 [Compound 23] | 

IC50 ([1]; read-out: IC50 Range) | IC50 [1, 4] | Compound | other results
 |  | CCC(Cc1ccccc1)=C(c1ccc(O)cc1)c1ccc(OCCN(C)C)cc1 [Compound 24, 4-{2-Benzyl-1-[4-(2-dimethylamino-ethoxy)-phenyl]-but-1-enyl}-phenol] | IC50 [1, 3]: 0.01 to 0.1 µM
 |  | CC/C(Cc1ccccc1OC)=C(/c1ccc(OCCN2CCCC2)cc1)c1ccc(OC(=O)C(C)(C)C)cc1 [Compound 26, 2,2-Dimethyl-propionic acid 4-{2-(2-methoxybenzyl)-1-[4-(2-pyrrolidin-1-yl-ethoxy)-phenyl]-but-1-enyl}-phenyl ester] | IC50 [1, 3]: 1 to 10 µM
 | 33.7 µM | CCC(Cc1ccccc1)=C(c1ccccc1)c1ccc(NCCOC)cc1 [Compound 27, [4-(2-Benzyl-1-phenylbut-1-enyl)-phenyl]-(2-methoxyethyl)-amine] | 
 | 36.8 µM | CCOCCNc1ccc(C(=C(CC)Cc2ccccc2)c2ccccc2)cc1 [Compound 28, [4-(2-Benzyl-1-phenylbut-1-enyl)-phenyl]-(2-ethoxyethyl)-amine] | 
 | 46.9 µM | CCCOCCNc1ccc(C(=C(CC)Cc2ccccc2)c2ccccc2)cc1 [Compound 29, [4-(2-Benzyl-1-phenylbut-1-enyl)-phenyl]-(2-propoxyethyl)-amine] | 
 | 35.4 µM | CCC(Cc1ccccc1)=C(c1ccccc1)c1ccc(NCCCOC)cc1 [Compound 30, [4-(2-Benzyl-1-phenylbut-1-enyl)-phenyl]-(3-methoxypropyl)-amine] | 
 | 14.1 µM | CCOCCCNc1ccc(/C(=C(/CC)Cc2ccccc2)c2ccccc2)cc1 [Compound 31, [4-(2-benzyl-1-phenylbut-1-enyl)-phenyl]-(3-ethoxypropyl)-amine] | 
 | 23.3 µM | CCCOCCCNc1ccc(C(=C(CC)Cc2ccccc2)c2ccccc2)cc1 [Compound 32, [4-(2-Benzyl-1-phenylbut-1-enyl)-phenyl]-(3-propoxypropyl)-amine] | 
 | 39.5 µM | CCC(Cc1ccccc1)=C(c1ccccc1)c1ccc(NCCO)cc1 [Compound 33, 2-[4-(2-Benzyl-1-phenylbut-1-enyl)-phenylamino]-ethanol] | 
 | 34 µM | CCC(Cc1ccccc1)=C(c1ccccc1)c1ccc(NCCCO)cc1 [Compound 34, 3-[4-(2-Benzyl-1-phenylbut-1-enyl)-phenylamino]-propan-1-ol] | 
 | 24.9 µM | CCC(Cc1ccccc1)=C(c1ccccc1)c1ccc(OCCO)cc1 [Compound 35, 2-[4-(2-Benzyl-1-phenylbut1enyl)-phenoxy]-ethanol] | 
 | 20.2 µM | CCC(Cc1ccccc1)=C(c1ccccc1)c1ccc(OCCCO)cc1 [Compound 36, 3-[4-(2-Benzyl-1-phenylbut-1-enyl)-phenoxy]-propan-1-ol] | 
 | 34.4 µM | CCC(Cc1ccccc1)=C(c1ccc(NCCOC)cc1)c1ccc(OC)cc1 [Compound 37, {4-[2-Benzyl-1-(4-methoxyphenyl)-but-1-enyl]-phenyl}-(2-methoxyethyl)-amine] | 
 | 51.8 µM | CCC(Cc1ccc(OC)cc1)=C(c1ccc(NCCOC)cc1)c1ccc(OC)cc1 [Compound 38, {4-[2-(4-methoxybenzyl)-1-(4-methoxyphenyl)-but-1-enyl]-phenyl}-(2-methoxyethyl)-amine] | 
 | 49.5 µM | CCC(Cc1ccc(OC)cc1)=C(c1ccccc1)c1ccc(NCCOC)cc1 [Compound 39, {4-[2-(4-methoxybenzyl)-1-phenylbut-1-enyl]-phenyl}-(2-methoxyethyl)-amine] | 
 | 41.7 µM | CCC(Cc1ccccc1)=C(c1ccccc1)c1ccc(OCCOC)cc1 [Compound 40, 1-(2-Benzyl-1-phenylbut-1-enyl)-4-(2-methoxyethoxy)-benzene] | 
 | 32.4 µM | CCC(Cc1ccc(O)cc1)=C(c1ccccc1)c1ccc(NCCOC)cc1 [Compound 41, 4-{2-Ethyl-3-[4-(2-methoxyethylamino)-phenyl]-3-phenylallyl}-phenol] | 
 | 13.7 µM | CCC(Cc1ccccc1)=C(c1ccccc1)c1ccc(NCCN(C)C)cc1 [Compound 42, N′-[4-(2-Benzyl-1-phenylbut-1-enyl)-phenyl]-N,N-dimethylethane-1,2-diamine] | 
